Like-named read-outs stand apart in the source and are kept apart here.
Key:
clinical = settings: female, human, in vivo
Description: (§1) Doxorubicin (60 mg/m^2) was administered as an IV infusion over 5–10 minutes followed by an infusion of cyclophosphamide 600 mg/m^2 over 30–60 minutes every two weeks for a total of four cycles (cumulative doxorubicin 240 mg/m^2). All subjects received aprepitant, dexamethasone and palonsetron prior to each infusion of doxorubicin. All subjects received pegfilgrastim subcutaneously 24–72 hours after doxorubicin and cyclophosphamide.
(§2) This was a randomized, cross-over, single-blinded drug-drug interaction study. All patients received one cycle of AC chemotherapy with enalapril and another cycle of AC with placebo (without enalapril). The two study cycles were consecutive. Patients were randomized to the enalapril intervention or placebo in cycle 1 with cross-over in the subsequent cycle. They began 5 mg of enalapril daily on day −6, and then increased to 10 mg daily on day −2, prior to doxorubicin administration on day 1.
(§3) Blood samples for pharmacokinetics (doxorubicin and doxorubicinol) were obtained in each subject twice (one cycle with enalapril and one with placebo). Samples were drawn at baseline (immediately prior to start of doxorubicin) and then at 0.5, 1, 2, 4, 24 and 48 hours after the end of infusion. Five milliliters of blood was collected at each sampling time and placed in an EDTA tube for doxorubicin and doxorubicinol analysis. Each sample of whole blood was immediately inverted 10 times, placed on wet ice, centrifuged at 3400 rpm for 10 minutes at 4 degrees C, plasma separated and frozen to −80 degrees C within 15 minutes of collection. Samples remained frozen at −80 degrees C until time of analysis. Samples were batched at the time of analysis.
(§4) Doxorubicin and doxorubicinol plasma concentration-time data were analyzed using noncompartmental methods (WinNonLin Professional 6.3). Area-under-the-curve (AUC) (0-∞) was estimated by the log/linear trapezoidal method as AUC (0-t*) + C(t*)/Ke where C(t*) was the last observed concentration and Ke is the terminal first order elimination rate constant. Ke was calculated as the slope of the linear portion of the log of plasma-concentration vs time curve using linear regression analysis. Cmax was at the highest observed concentration.
(§5) The chromatographic separation was performed with a Waters UPLC BEH C18, 2.1 × 50 mm, reversed phase column with a 1.7-micron particle size (Waters, Milford, MA). The mobile phase used for gradient elution consisted of (A) 5 mM ammonium acetate in water, pH 3.5 (B) methanol. […] The column temperature was maintained at 35°C. […] The collision energy was 14 eV, 12 eV and 25 eV, respectively. […] Cartridges were conditioned with 1 mL methanol followed by 1 mL DI water (18 Mohm.cm, type 1). The cartridges were loaded with the samples and centrifuged at 83 × g for 5 minutes and then washed with 1 mL distilled ionized water, centrifuged and transferred to a vacuum manifold for 5 minutes, and eluted with 1 mL methanol. The eluent was evaporated to dryness using a nitrogen evaporator (Zymark Turbo Vap LV, Hopkinton, MA) set at 37°C, and reconstituted in 100 μL of mobile phase (A:B, 45:55). Doxorubicin and doxorubicinol were obtained from Toronto Research Chemicals (Toronto, Ontario, CAN). Daunorubicin was obtained from Sigma-Aldrich (St. Louis, MO). The assays are linear in the range of 1 – 1,000 ng/mL. […] The lower limit of quantification for both analytes is 1 ng/mL.
(§6) The confidence interval is a measure of the precision of the exposure ratio estimate.

[1] = cited from earlier work; for Incidence of symptomatic heart failure: ref Singal and Iliskovic [1998], Yeh et al. [2004], Muggia and Speyer [1999]; for Incidence of asymptomatic declines in ejection fraction: up to, ref Lenihan and Cardinale [2012]
[2] = female, human, in vivo
Description: as §1, §2, §3, §4, §5, §6

[3] = Doxorubicin and doxorubicinol plasma pharmacokinetics with and without enalapril (randomized cross-over drug-drug interaction study); settings: for AUC(0-∞) geometric mean ratio (90% CI) / Cmax geometric mean ratio (90% CI): with versus without enalapril; for Cmax: geometric mean ± standard error, 17 women
Description: as §1, §2, §3, §4, §5, §6

[4] = Safety / adverse events in the enalapril-doxorubicin interaction study; type: in vivo, women with breast cancer; settings: enalapril 5 then 10 mg daily with doxorubicin and cyclophosphamide
Description: The two study cycles were consecutive. […] There were no serious or grade 3 or 4 adverse events. The most commonly reported drug-related adverse event was dizziness with 33% experiencing grade 1 dizziness. No clinical cardiac events occurred.

[5] = design: method as in Cardinale et al. [2006]; settings: 12 months after therapy; enalapril 20 mg daily; patients with troponin elevation; placebo 48.3%, p < 0.001; ref Cardinale et al. [2006]; cited from earlier work

Structure (SMILES) | AUC(0-inf) (clinical; AUC0-∞) | AUC(0-inf) (clinical; iv, 60 mg/m2, AUC(0-∞)) | Incidence of symptomatic heart failure ([1]; cumulative doses of 400–500 mg/m^2) | Incidence of symptomatic heart failure ([1]; cumulative doses ≥ 600 mg/m^2) | Incidence of asymptomatic declines in ejection fraction ([1]; higher doses) | Incidence of asymptomatic declines in ejection fraction ([1]; moderate doses (240–400 mg/m^2)) | AUC0-∞ [2] | 90% CI for Cmax geometric mean ratio ([3]; reanalysis removing the outlier Cmax (subject with body mass index 53 kg/m^2)) | AUC(0-∞) geometric mean ratio (90% CI) [3] | Cmax geometric mean ratio (90% CI) [3] | AUC0-∞ ([3]; with enalapril 10 mg daily, doxorubicin 60 mg/m^2 IV, plasma, Table 3 geometric mean ± standard error, text mean (standard error)) | Cmax ([3]; with enalapril 10 mg daily, doxorubicin 60 mg/m^2 IV, plasma) | AUC0-∞ ([3]; with enalapril exposure, abstract, Mean (SD)) | AUC0-∞ ([3]; without enalapril (placebo cycle), doxorubicin 60 mg/m^2 IV, plasma, Table 3 geometric mean ± standard error, text mean (standard error)) | AUC0-∞ ([3]; without enalapril (placebo cycle), doxorubicin 60 mg/m^2 IV, plasma, Table 3 geometric mean ± standard error, text mean (standard error), listed as doxorubicinol) | Cmax ([3]; without enalapril (placebo cycle), doxorubicin 60 mg/m^2 IV, plasma) | AUC0-∞ ([3]; without enalapril, abstract, Mean (SD)) | Subjects with grade 1 dizziness [4] | Left ventricular ejection fraction [5]
COc1cccc2c1C(=O)c1c(O)c3c(c(O)c1C2=O)C[C@@](O)(C(=O)CO)C[C@@H]3O[C@H]1C[C@H](N)[C@H](O)[C@H](C)O1 [Doxorubicin] | 1190 ng·h/mL | 1640 ng·h/mL | 3-4% | more than 30% | 30-35% | 20-25% | 1167.73 (45.26) hr*ng/ml | 0.94-1.21 | 1.02(0.96-1.08) | 1.19(0.94-1.51) |  |  |  |  |  |  |  |  | 
COc1cccc2c1C(=O)c1c(O)c3c(c(O)c1C2=O)C[C@@](O)([C@@H](O)CO)C[C@@H]3O[C@H]1C[C@H](N)[C@H](O)[C@H](C)O1 [Doxorubicinol, doxorubicinol] |  |  |  |  |  |  |  |  | 0.96(0.88-1.05) | 0.99(0.91-1.08) | 1040 ± 80.6 ng·h/mL | 27.81 ± 3.59 ng/mL | 1040 (80.6) hr*ng/ml | 1056.32 ± 92.03 ng·h/mL | 1056.3 (92.0) ng-hr/mL | 29.66 ± 4.68 ng/mL | 1056.32 (92.03) hr*ng/ml |  | 
CCOC(=O)[C@H](CCc1ccccc1)N[C@@H](C)C(=O)N1CCC[C@H]1C(=O)O [Enalapril, enalapril] |  |  |  |  |  |  |  |  |  |  |  |  |  |  |  |  |  | 33% | 62.8%

Reference: paper PMC4309801, “Angiotensin Converting Enzyme Inhibitors (ACEI) and doxorubicin pharmacokinetics in women receiving adjuvant breast cancer treatment” (SpringerPlus, 2015)
